Assay results as given in PMC2949700, “Identification of the full set of Listeria monocytogenes penicillin-binding proteins and characterization of PBPD2 (Lmo2812)” (BMC Microbiology, 2010).
≈ marks a conversion by molar mass, not a printed value. Read-outs that look alike come from different tables or passages of the source.

What was measured:
L. monocytogenes EGD = experiment: Microdilution MIC test; assay type: cell-based, Listeria monocytogenes
Procedure: (§1) To determine the effect of these mutations on cell morphology, the strains EGD, KD2812 and DA07 were analyzed by scanning electron microscopy (SEM). […] At 30°C the average cell length compared to strain EGD was increased by 38.5% in strain KD2812 and by 44.8% in the double mutant strain. The respective values at 37°C were 37.5% and 43%. […] The variant cells were characteristically curved with a bend at either one or both ends and subterminal constrictions. The number of cells with altered morphology was increased as the growth temperature was raised (Figure 3; b, e, h). Cell bending was more pronounced in the population of AD07 mutant cells (Figure 3; c, f, i). […] Similar results were found for a mutant of L. monocytogenes lacking PBP5 (PBPD1) examined in a previous study.
(§2) Microdilution tests were performed using cation-adjusted Mueller-Hinton broth (CAMHB) supplemented with 5% lysed horse blood containing two-fold dilutions of the antimicrobial agents. These mixtures were dispensed in 100 μl aliquots into plastic 96-well plates. To prepare inocula, a single colony of each strain from a TSBYE plate was transferred into 10 ml of the same medium and incubated for 24 h at 37°C. These cultures were serially diluted in CAMHB to a concentration of 10^5 cfu/ml and 100 μl aliquots were added to the microdilution plates. The plates were incubated for 18-20 h at 37°C before the reading of the MIC endpoints. The MIC was the lowest antibiotic concentration at which visible growth was inhibited.

[1] = test system: L. monocytogenes KD2812 (Δlmo2812); experiment: Microdilution MIC test; assay type: cell-based, Listeria monocytogenes
Procedure: as §1, §2

[2] = test system: L. monocytogenes AD07 (Δlmo2812 Δlmo2754); experiment: Microdilution MIC test; assay type: cell-based, Listeria monocytogenes
Procedure: as §1, §2

[3] = target: purified recombinant Lmo2812 (PBPD2) (Listeria monocytogenes, UniProt Q8Y3M3); experiment: Fluorescent antibiotic binding assay, purified recombinant protein; conditions: purified recombinant Lmo2812; antibiotic concentration for 50% of maximum binding; read-out: apparent affinity constant (Kd50)
Procedure: The purified protein was incubated with different concentrations of Boc-FL (0.25, 0.5, 2.5, 5 and 10 μM). […] Lmo2812 was the major band on gels, with a slower migrating minor band thought to represent a dimeric form (Figure 2).
Figure 2 Purified recombinant L. monocytogenes Lmo2812 (PBPD2) identified with Boc-FL. Samples of purified recombinant Lmo2812 (10 μg) were labeled with Boc-FL at concentrations of 0 (1), 0.25 (2), 0.5 (3), 2.5 (4), 5 (5) and 10 μM (6). Labeled bands were detected directly on the gel, quantified and their molecular mass estimated. The affinity of the bands for Boc-FL (Kd50) was estimated from their fluorescence as a function of the concentration of Boc-FL. The names of the bands are indicated on the right, and the positions of the molecular weight markers are shown on the left.
The β-lactam binding capacity of Lmo2812 was evaluated with three different fluorescent antibiotics: Boc-FL, Boc-650 and Amp-430.
Total whole cell proteins or purified recombinant protein resuspended in 50 mM NaPi buffer, pH 7.0 were labeled by incubation at 37°C for 30 min with different concentrations of Boc-FL (Molecular Probes), Boc-650 (Molecular Probes) or Amp-430 (prepared in the laboratory by coupling ampicillin to Alexa-430), and then separated on a 10% acrylamide, 3.3% cross-linkage SDS-PAGE gel. To avoid degradation of the fluorescent β-lactam antibiotics by β-lactamases, samples were incubated at 37°C with clavulanic acid at a final concentration of 10 μg/ml or EDTA at a final concentration of 10 mM for 30 min before labeling, where appropriate. Competition experiments were carried out by preincubation of the samples with ampicillin (100 μg/ml) for 30 min at 37°C, before adding the fluorescent antibiotic. The samples were then further incubated for 30 min at 37°C. PBPs were visualized directly on the polyacryloamide gel by fluorescence using a Typhoon 9410 imager (Amersham Biosciences) with excitation wavelengths of 588, 633 or 457 nm and emission filters 520BP40, 670BP30 or 555BP20 for Boc-FL, Boc-650 and Amp-430, respectively. […]

recombinant Lmo2812 = experiment: Enzymatic activity assay with natural muropeptides; assay type: biochemical, Listeria monocytogenes; conditions: for M4 (%) / M5 (%): 120 min at 37°C, HPLC
Procedure: No such cleavage occurred in the absence of Lmo2812.
The pH-dependence of the activity of Lmo2812 against monomeric muropepeptide M5 was determined in the pH range of 4.5 to 7.0. The highest activity was detected in assays performed at pH 7.0 in a Tris-Mg buffer, where half of the substrate was converted to the tetrapeptide (Table 3).
Whole total peptidoglycan and purified muropeptides were isolated from E. coli cells as described previously. A 10 μg sample of recombinant Lmo2812 was mixed with 5 μg of M5 (NAcGlc-NAcMur-pentapeptide) or D45 (NAcGlc-NAcMur-tetrapeptide-NAcGlc-NAcMur-pentapeptide) in a volume of 30 μl using three different buffer conditions: pH 4.5 (50 mM NaPi, 1% methanol, pH 4.5), pH 7.0 (30 mM Tris-HCl, 3 mM MgCl2, pH 7.0), or NaPi (50 mM sodium phosphate buffer, pH 7.0). These mixtures were incubated at 37°C for 120 min. Control samples of M5 or D45 without Lmo2812 were similarly incubated in 30 mM Tris-HCl buffer, 3 mM MgCl2, pH 7.0. The samples were analyzed by HPLC using a C18 reversed phase column and a methanol gradient to separate the peaks.

[4] = test system: purified recombinant Lmo2812; experiment: DD-carboxypeptidase activity assay with synthetic tripeptide; assay type: biochemical, Listeria monocytogenes; conditions: substrate up to 12.5 mM, 40 μg of purified protein
Procedure: The maximum activity was 0.75 pmoles/μg min, indicating low DD-carboxypeptidase activity under these assay conditions.
A modification of the method of Frere et al. was used for DD-carboxypeptidase activity measurement. A reaction mixture comprised of 15 μl of Nα,Nε-Diacetyl-Lys-D-Ala-D-Ala (25 mM), 3 μl of buffer (300 mM Tris-HCl pH 7.5) and 12 μl of purified recombinant Lmo2812 was prepared, incubated at 37°C and samples were taken every 10 min for 1 h. To these samples, 5 μl of 10 mg/ml (in methanol) o-Dianisidine (SIGMA) and 70 μl of enzyme/coenzyme mix (flavinadenine dinucleotide (FAD), Peroxidase and D-Amino acid Oxidase) were added. These mixtures were incubated at 37°C for 5 min, then 400 μl of methanol-water (v/v) was added and incubation continued at 37°C for another 2 min. The absorbance of each reaction was immediately read at 460 nm. A number of controls were performed: reactions containing only recombinant Lmo2812 fractions, reactions lacking recombinant Lmo2812 to establish the level of natural degradation of the tripeptide for at each sampling point, and standard samples containing known amounts of D-alanine.

[5] = Listeria monocytogenes, EGD wild-type, CAMHB with 5% lysed horse blood, 18-20 h at 37°C, read-out: MIC
[6] = KD2812 mutant, CAMHB with 5% lysed horse blood, 18-20 h at 37°C
[7] = EGD wild-type, CAMHB with 5% lysed horse blood, 18-20 h at 37°C
[8] = AD07 double mutant, CAMHB with 5% lysed horse blood, 18-20 h at 37°C

Chain of purified recombinant Lmo2812 (PBPD2) (Q8Y3M3 entry or part of it): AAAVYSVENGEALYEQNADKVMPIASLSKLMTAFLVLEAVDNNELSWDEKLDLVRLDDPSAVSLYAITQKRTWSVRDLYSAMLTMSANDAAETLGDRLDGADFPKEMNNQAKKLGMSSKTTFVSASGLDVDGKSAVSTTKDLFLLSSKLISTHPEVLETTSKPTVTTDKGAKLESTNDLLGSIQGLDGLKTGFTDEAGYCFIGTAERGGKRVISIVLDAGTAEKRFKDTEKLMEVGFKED

CC(=O)OCC1=C(C(=O)O)N2C(=O)[C@@H](NC(=O)Cc3cccs3)[C@H]2SC1 [cefalotin]
MIC (L. monocytogenes EGD; [5]): 2 µg/mL (≈ 5.04 µM)

CO/N=C(\C(=O)N[C@@H]1C(=O)N2C(C(=O)O)=C(COC(C)=O)CS[C@H]12)c1csc(N)n1 [cefotaxim]
MIC [1, 6]: 6 µg/mL (≈ 13.2 µM) | MIC (L. monocytogenes EGD; [7]): 6 µg/mL (≈ 13.2 µM) | MIC [2, 8]: 6 µg/mL (≈ 13.2 µM)

CO[C@@]1(NC(=O)Cc2cccs2)C(=O)N2C(C(=O)O)=C(COC(N)=O)CS[C@@H]21 [cefoxitin]
MIC ([1]; Listeria monocytogenes): 32 µg/mL (≈ 74.9 µM) | MIC (L. monocytogenes EGD; Listeria monocytogenes): 32 µg/mL (≈ 74.9 µM) | MIC ([2]; Listeria monocytogenes): 32 µg/mL (≈ 74.9 µM)

CC(C)(O/N=C(\C(=O)N[C@@H]1C(=O)N2C(C(=O)[O-])=C(C[n+]3ccccc3)CS[C@H]12)c1csc(N)n1)C(=O)O [ceftazidime]
MIC ([1]; Listeria monocytogenes): 256 µg/mL (≈ 468 µM) | MIC (L. monocytogenes EGD; Listeria monocytogenes): 256 µg/mL (≈ 468 µM) | MIC ([2]; Listeria monocytogenes): 256 µg/mL (≈ 468 µM)

Cc1onc(-c2ccccc2)c1C(=O)N[C@@H]1C(=O)N2[C@@H]1SC(C)(C)[C@@H]2C(=O)O [oxacillin]
MIC (L. monocytogenes EGD; [5]): 2.5 µg/mL (≈ 6.23 µM) | MIC ([2]; Listeria monocytogenes): 1.25 µg/mL (≈ 3.11 µM)

CCN1CCN(C(=O)N[C@@H](C(=O)N[C@@H]2C(=O)N3[C@@H]2SC(C)(C)[C@@H]3C(=O)O)c2ccccc2)C(=O)C1=O [piperacillin]
MIC ([1]; Listeria monocytogenes): 1.25 µg/mL (≈ 2.42 µM) | MIC (L. monocytogenes EGD; Listeria monocytogenes): 1.25 µg/mL (≈ 2.42 µM) | MIC ([2]; Listeria monocytogenes): 1.25 µg/mL (≈ 2.42 µM)

Ampicillin-Alexa430 [Amp-430]
Kd [3]: 18.5 µM

Bocillin-650 [Boc-650]
Kd [3]: 2.8 µM

NAcGlc-NAcMur-pentapeptide [M5]
M4 (%) (recombinant Lmo2812; Lmo2812, M5, NaPi, pH 7.0): 16% | M5 (%) (recombinant Lmo2812; Lmo2812, M5, NaPi, pH 7.0): 84% | M4 (%) (recombinant Lmo2812; Lmo2812, M5, Tris-Mg, pH 7.0): 48% | M5 (%) (recombinant Lmo2812; Lmo2812, M5, Tris-Mg, pH 7.0): 52% | M4 (%) (recombinant Lmo2812; Lmo2812, M5, pH 4.5): 3% | M5 (%) (recombinant Lmo2812; Lmo2812, M5, pH 4.5): 97%

NAcGlc-NAcMur-tetrapeptide-NAcGlc-NAcMur-pentapeptide [D45]
hydrolysis by purified Lmo2812 (recombinant Lmo2812; up to 100 μg of protein, up to 18 h): no such enzymatic activity was detected

Nα,Nε-Diacetyl-Lys-D-Ala-D-Ala
maximum DD-carboxypeptidase activity [4]: 0.75 pmol/µg/min

penicillin
MIC [1, 6]: 0.16 µg/mL | MIC (L. monocytogenes EGD; [7]): 0.16 µg/mL | MIC [2, 8]: 0.08 µg/mL
